In PMC10818931, “In Vitro Evaluation of Drug–Drug Interaction Potential of Epetraborole, a Novel Bacterial Leucyl-tRNA Synthetase Inhibitor” (Pharmaceuticals, 2024):

Experiments:
Assay in all cases: Substrate potential in transporter-transfected MDCK cells
Type in all cases: in vitro ADME
[1] = target: T1, MATE1 (Homo sapiens, UniProt Q96FL8)
T1 construct: host or cells: MDCK
T1 sequence (Q96FL8 1-570): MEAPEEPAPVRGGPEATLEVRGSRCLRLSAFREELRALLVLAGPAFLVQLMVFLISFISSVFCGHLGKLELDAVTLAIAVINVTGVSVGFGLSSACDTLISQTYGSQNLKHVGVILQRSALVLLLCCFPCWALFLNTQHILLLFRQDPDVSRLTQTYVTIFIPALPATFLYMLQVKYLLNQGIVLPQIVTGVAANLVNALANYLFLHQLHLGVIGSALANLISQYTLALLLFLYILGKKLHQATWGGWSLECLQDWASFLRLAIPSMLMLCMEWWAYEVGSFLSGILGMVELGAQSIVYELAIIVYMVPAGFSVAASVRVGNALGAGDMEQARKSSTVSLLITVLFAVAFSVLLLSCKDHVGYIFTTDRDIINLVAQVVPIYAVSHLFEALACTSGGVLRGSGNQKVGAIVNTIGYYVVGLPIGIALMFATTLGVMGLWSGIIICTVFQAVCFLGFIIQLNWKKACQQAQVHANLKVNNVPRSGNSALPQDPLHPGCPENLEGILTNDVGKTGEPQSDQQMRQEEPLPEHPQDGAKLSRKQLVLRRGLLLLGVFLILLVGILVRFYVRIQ
Experimental: (§1) The uptake of a probe substrate of each transporter was conducted in parallel with the test article in separate wells of the same batch of vector control and transporter-transfected cells. Cells were incubated at 37 °C with 5% CO2 with 500 μL of dosing solution for different periods of time.

[2] = target: T2, MATE2K (Homo sapiens, UniProt Q86VL8)
T2 construct: host or cells: MDCK
Experimental: as §1

[3] = target: T3, OAT1 (Homo sapiens, UniProt Q4U2R8)
T3 construct: host or cells: MDCK
T3 sequence (Q4U2R8 1-563): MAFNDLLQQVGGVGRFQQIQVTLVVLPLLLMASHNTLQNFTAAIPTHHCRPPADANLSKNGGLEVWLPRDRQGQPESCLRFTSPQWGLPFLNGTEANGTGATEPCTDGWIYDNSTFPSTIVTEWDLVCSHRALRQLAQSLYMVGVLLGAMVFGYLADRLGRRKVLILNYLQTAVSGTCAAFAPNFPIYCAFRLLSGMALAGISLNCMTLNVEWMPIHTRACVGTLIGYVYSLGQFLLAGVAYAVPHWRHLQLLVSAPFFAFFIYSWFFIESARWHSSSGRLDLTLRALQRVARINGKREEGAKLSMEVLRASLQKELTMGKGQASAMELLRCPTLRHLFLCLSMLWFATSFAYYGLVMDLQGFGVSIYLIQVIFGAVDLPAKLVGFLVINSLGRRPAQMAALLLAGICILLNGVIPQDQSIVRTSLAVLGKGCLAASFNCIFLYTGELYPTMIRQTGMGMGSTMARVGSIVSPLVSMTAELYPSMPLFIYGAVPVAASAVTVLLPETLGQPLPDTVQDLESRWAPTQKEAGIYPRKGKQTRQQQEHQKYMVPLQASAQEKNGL
Experimental: as §1

[4] = target: T4, OATP1B3 (Homo sapiens, UniProt Q9NPD5)
T4 construct: host or cells: MDCK
T4 sequence (Q9NPD5 1-702): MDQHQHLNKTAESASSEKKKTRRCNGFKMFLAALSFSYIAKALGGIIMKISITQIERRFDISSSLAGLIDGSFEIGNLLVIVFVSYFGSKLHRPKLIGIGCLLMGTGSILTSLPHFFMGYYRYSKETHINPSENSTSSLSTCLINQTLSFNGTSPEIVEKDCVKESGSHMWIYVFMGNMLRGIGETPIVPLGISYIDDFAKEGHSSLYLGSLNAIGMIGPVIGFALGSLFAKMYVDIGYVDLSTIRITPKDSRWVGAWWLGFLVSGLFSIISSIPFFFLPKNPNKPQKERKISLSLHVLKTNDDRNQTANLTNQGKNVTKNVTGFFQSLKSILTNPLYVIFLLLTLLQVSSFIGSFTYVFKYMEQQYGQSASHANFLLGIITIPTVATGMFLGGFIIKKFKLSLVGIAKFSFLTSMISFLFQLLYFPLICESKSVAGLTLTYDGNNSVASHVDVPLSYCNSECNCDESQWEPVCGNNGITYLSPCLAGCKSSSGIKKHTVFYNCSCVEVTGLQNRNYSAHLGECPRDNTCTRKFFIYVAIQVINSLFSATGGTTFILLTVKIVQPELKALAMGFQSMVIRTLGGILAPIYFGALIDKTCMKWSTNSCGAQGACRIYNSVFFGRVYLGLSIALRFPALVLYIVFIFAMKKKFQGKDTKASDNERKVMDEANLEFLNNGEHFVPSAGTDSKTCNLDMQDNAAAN
Experimental: as §1

[5] = target: T5, OCT2 (Homo sapiens, UniProt O15244)
T5 construct: host or cells: MDCK
T5 sequence (O15244 1-555): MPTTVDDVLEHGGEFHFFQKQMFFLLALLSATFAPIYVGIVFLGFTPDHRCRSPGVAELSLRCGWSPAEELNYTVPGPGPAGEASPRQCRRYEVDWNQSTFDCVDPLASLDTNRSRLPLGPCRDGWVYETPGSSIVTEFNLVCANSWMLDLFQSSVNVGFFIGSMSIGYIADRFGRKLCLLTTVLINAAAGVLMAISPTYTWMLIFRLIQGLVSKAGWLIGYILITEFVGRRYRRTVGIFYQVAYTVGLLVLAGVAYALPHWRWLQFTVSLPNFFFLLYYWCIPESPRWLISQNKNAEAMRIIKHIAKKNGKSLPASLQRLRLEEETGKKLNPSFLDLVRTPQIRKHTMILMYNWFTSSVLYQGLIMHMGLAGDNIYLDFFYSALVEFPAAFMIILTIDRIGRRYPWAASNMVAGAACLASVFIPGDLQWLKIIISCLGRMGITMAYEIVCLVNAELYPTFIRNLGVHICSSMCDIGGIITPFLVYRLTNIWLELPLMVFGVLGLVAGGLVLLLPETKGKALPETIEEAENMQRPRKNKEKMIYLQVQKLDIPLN
Experimental: as §1

T2 sequence (Q86VL8 1-566 isoform Q86VL8-3): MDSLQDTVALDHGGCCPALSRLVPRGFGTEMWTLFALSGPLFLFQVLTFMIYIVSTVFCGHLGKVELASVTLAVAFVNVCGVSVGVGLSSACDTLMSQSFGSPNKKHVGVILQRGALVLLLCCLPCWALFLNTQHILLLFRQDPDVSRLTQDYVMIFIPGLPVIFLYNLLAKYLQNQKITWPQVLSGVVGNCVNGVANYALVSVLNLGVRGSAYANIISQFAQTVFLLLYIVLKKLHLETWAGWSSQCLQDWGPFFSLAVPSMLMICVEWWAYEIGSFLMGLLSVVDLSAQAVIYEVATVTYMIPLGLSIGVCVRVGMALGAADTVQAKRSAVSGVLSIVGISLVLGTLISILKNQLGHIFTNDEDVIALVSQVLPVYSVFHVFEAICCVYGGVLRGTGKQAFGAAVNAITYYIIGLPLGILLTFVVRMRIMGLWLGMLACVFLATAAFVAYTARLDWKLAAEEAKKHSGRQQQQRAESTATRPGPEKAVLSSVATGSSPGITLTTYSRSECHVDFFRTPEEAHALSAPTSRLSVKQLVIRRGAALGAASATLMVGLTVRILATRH

| SMILES | Influx ratio [1] | as a Substrate [1] | Influx ratio [2] | as a Substrate [2] | Influx ratio [3] | as a Substrate [3] | Influx ratio [4] | as a Substrate [4] | as a Substrate [5] | Influx ratio ([5]; 5 µM) |
| --- | --- | --- | --- | --- | --- | --- | --- | --- | --- | --- |
| NC[C@H]1OB(O)c2c(OCCCO)cccc21 [EBO, Epetraborole] | < 2 | No | < 2 | No | < 2 | No | < 2 | No | could potentially be a substrate and Yes | 3.44 |
| NC[C@H]1OB(O)c2c(OCCC(=O)O)cccc21 [M3] | < 2 | No | < 2 | No | < 2 | No | < 2 | No | not a substrate and No | – |
